Assay results taken from article PMC11589570, “Critical assessment of LC3/GABARAP ligands used for degrader development and ligandability of LC3/GABARAP binding pockets” (Nature Communications, 2024).
Where “and” joins values, the source holds several entries; their conditions need not be identical. Identical values can stand only once.

Tests used:
RPE1 cells = assay: Cell growth assay (IncuCyte confluence over 72 h); type: cell-based
Procedure: (§1) Cell growth assay: Cell confluence (phase) from RPE1 (hTERT RPE-1, ATCC CLR_4000) or U2OS (ATCC, HTB-96) cell lines were monitored over time with the IncuCyte S3 (Sartiorius, Germany) in 384-well plates in 50 ul DMEM media, supplemented with 10% Fetal Bovine Serum (FBS) 1% penicillin/Streptomycin and incubated 24 h before treatment. Experiment was performed as described in Cano-Franco et al.. 50 μl of media containing either 2× final concentration of indicated compounds in or control compounds (final conc.: 0.1% DMSO, 250 nM Torin1, 200 ng/mL Bafilomycin) were added and images were taken every two hours over 72 h. Cell confluence is represented as % of area covered by cells. Each data point represents the average ratio or confluence obtained from three individual wells of the plate.

U2OS cells = assay: Cell growth assay (IncuCyte confluence over 72 h); type: cell-based; parameters: key to U2OS cell growth: % of well area covered by cells (confluence)
Procedure: as §1, with “50 μl of media containing either 2× final concentration of indicated compounds in or control compounds (final conc.: 0.1% DMSO, 250 nM Torin1, 200 ng/mL Bafilomycin) were added and images were taken every two hours over 72 h.” left out

LC3A = LC3A (Homo sapiens, UniProt Q9H492); assay: Isothermal titration calorimetry (ITC); type: binding; conditions: LC3A; read-out: KD (ITC)
From the text: To minimize nonspecific dilution heat effects, DMSO concentrations in the protein and compound samples were matched. […] For this protocol, the chamber was pre-equilibrated with the protein, and the test compounds were titrated while continuously measuring the rate of exothermic heat evolution. The heat of binding was integrated, corrected, and fitted to an independent single-binding site model based on the manufacturer’s instructions, from which thermodynamic parameters (ΔH and TΔS), equilibrium association and dissociation constants (KA and KD, respectively), and stoichiometry (n) were calculated using TA Instruments NanoAnalyze software.

`CO[C@@H]1[C@@H](OC(N)=O)[C@@H](O)[C@H](Oc2ccc3c(O)c(NC(=O)c4ccc(O)c(CC=C(C)C)c4)c(=O)oc3c2C)OC1(C)C` [compound 12, Novobiocin] was tested, and the RPE1 cell growth (RPE1 cells; 100 nM, 0 h) was 25 and 15, the RPE1 cell growth (RPE1 cells; 100 nM, 2 h) was 26 and 15 and 17 and the RPE1 cell growth (RPE1 cells; 100 nM, 4 h) was 29 and 17 and 18. The RPE1 cell growth (RPE1 cells; 100 nM, 6 h) was 30 and 18, the RPE1 cell growth (RPE1 cells; 100 nM, 8 h) was 33 and 18 and 20 and the RPE1 cell growth (RPE1 cells; 100 nM, 10 h) was 36 and 19 and 21. For the same compound, the RPE1 cell growth (RPE1 cells; 500 nM, 0 h) was 27 and 16 and 18, the RPE1 cell growth (RPE1 cells; 500 nM, 2 h) was 32 and 16 and 20 and the RPE1 cell growth (RPE1 cells; 500 nM, 4 h) was 32 and 18 and 22. For the same compound, the RPE1 cell growth (RPE1 cells; 500 nM, 6 h) was 35 and 18 and 22, the RPE1 cell growth (RPE1 cells; 500 nM, 8 h) was 38 and 20 and 23 and the RPE1 cell growth (RPE1 cells; 500 nM, 10 h) was 39 and 21. The RPE1 cell growth (RPE1 cells; 1 uM, 0 h) was 18 and 23 and 20, the RPE1 cell growth (RPE1 cells; 1 uM, 2 h) was 20 and 26 and 21 and the RPE1 cell growth (RPE1 cells; 1 uM, 4 h) was 22 and 28 and 21. For the same compound, the RPE1 cell growth (RPE1 cells; 1 uM, 6 h) was 23 and 32, the RPE1 cell growth (RPE1 cells; 1 uM, 8 h) was 26 and 35 and 25 and the RPE1 cell growth (RPE1 cells; 1 uM, 10 h) was 27. The RPE1 cell growth (RPE1 cells; 3 uM, 0 h) was 27 and 19 and 22, the RPE1 cell growth (RPE1 cells; 3 uM, 2 h) was 31 and 19 and 24 and the RPE1 cell growth (RPE1 cells; 3 uM, 4 h) was 33 and 20 and 27. For the same compound, the RPE1 cell growth (RPE1 cells; 3 uM, 6 h) was 37 and 22 and 28, the RPE1 cell growth (RPE1 cells; 3 uM, 8 h) was 41 and 24 and 30 and the RPE1 cell growth (RPE1 cells; 3 uM, 10 h) was 40 and 26 and 31. The RPE1 cell growth (RPE1 cells; 5 uM, 0 h) was 24 and 20, the RPE1 cell growth (RPE1 cells; 5 uM, 2 h) was 28 and 22 and 24 and the RPE1 cell growth (RPE1 cells; 5 uM, 4 h) was 31 and 22 and 26. For the same compound, the RPE1 cell growth (RPE1 cells; 5 uM, 6 h) was 34 and 23 and 27, the RPE1 cell growth (RPE1 cells; 5 uM, 8 h) was 36 and 26 and 28 and the RPE1 cell growth (RPE1 cells; 5 uM, 10 h) was 35 and 26 and 30. The RPE1 cell growth (RPE1 cells; 10 uM, 0 h) was 22 and 24 and 16, the RPE1 cell growth (RPE1 cells; 10 uM, 2 h) was 24 and 19 and the RPE1 cell growth (RPE1 cells; 10 uM, 4 h) was 26 and 24 and 20. The RPE1 cell growth (RPE1 cells; 10 uM, 6 h) was 29 and 25 and 23, the RPE1 cell growth (RPE1 cells; 10 uM, 8 h) was 32 and 28 and 23 and the RPE1 cell growth (RPE1 cells; 10 uM, 10 h) was 32 and 28 and 26. The U2OS cell growth (U2OS cells; 100 nM, time 10 h) was 31.1029 and 33.4179 and 23.7087, the U2OS cell growth (U2OS cells; 100 nM, time 0 h) was 19.136 and 22.8325 and 13.4185 and the U2OS cell growth (U2OS cells; 100 nM, time 2 h) was 26.0593 and 27.2796 and 22.6674. The U2OS cell growth (U2OS cells; 100 nM, time 4 h) was 30.3299 and 25.4304 and 21.2335, the U2OS cell growth (U2OS cells; 100 nM, time 6 h) was 27.5347 and 27.1928 and 26.8694 and the U2OS cell growth (U2OS cells; 100 nM, time 8 h) was 31.7442 and 25.9761 and 21.578. The U2OS cell growth (U2OS cells; 500 nM, time 0 h) was 26.2226 and 29.6942 and 26.7407, the U2OS cell growth (U2OS cells; 500 nM, time 2 h) was 28.1697 and 29.3576 and 35.4881 and the U2OS cell growth (U2OS cells; 500 nM, time 4 h) was 24.6559 and 29.8656 and 34.6982. The U2OS cell growth (U2OS cells; 500 nM, time 6 h) was 27.3788 and 36.5331 and 38.1104, the U2OS cell growth (U2OS cells; 1 uM, time 12 h) was 42.1826 and the U2OS cell growth (U2OS cells; 1 uM, time 0 h) was 33.676 and 37.1441 and 40.8786. For the same compound, the U2OS cell growth (U2OS cells; 1 uM, time 2 h) was 36.3349 and 37.5509 and 45.2384, the U2OS cell growth (U2OS cells; 1 uM, time 4 h) was 33.5211 and 30.275 and 38.1541 and the U2OS cell growth (U2OS cells; 1 uM, time 6 h) was 37.9722 and 40.3217 and 48.2479. For the same compound, the U2OS cell growth (U2OS cells; 3 uM, time 10 h) was 50.7454 and 57.0193 and 59.2136, the U2OS cell growth (U2OS cells; 3 uM, time 12 h) was 41.453 and 34.0715 and 58.5093 and the U2OS cell growth (U2OS cells; 3 uM, time 0 h) was 41.5291 and 47.819 and 45.1855. For the same compound, the U2OS cell growth (U2OS cells; 3 uM, time 2 h) was 44.8462 and 48.6747 and 48.1364, the U2OS cell growth (U2OS cells; 3 uM, time 4 h) was 43.175 and 44.1535 and 45.8798 and the U2OS cell growth (U2OS cells; 3 uM, time 6 h) was 48.3538 and 51.3151 and 53.1755. The U2OS cell growth (U2OS cells; 3 uM, time 8 h) was 48.5002 and 53.1189 and 54.8109, the U2OS cell growth (U2OS cells; 5 uM, time 10 h) was 57.6709 and 52.4954 and 56.7999 and the U2OS cell growth (U2OS cells; 5 uM, time 0 h) was 41.1202 and 38.7556 and 46.8996. For the same compound, the U2OS cell growth (U2OS cells; 5 uM, time 2 h) was 48.6568 and 43.7565 and 48.1243, the U2OS cell growth (U2OS cells; 5 uM, time 4 h) was 49.6825 and 47.505 and 46.9675 and the U2OS cell growth (U2OS cells; 5 uM, time 6 h) was 52.2007 and 50.4885 and 57.3887. For the same compound, the U2OS cell growth (U2OS cells; 5 uM, time 8 h) was 51.5745 and 47.2991 and 53.416, the U2OS cell growth (U2OS cells; 10 uM, time 10 h) was 46.9907 and 34.892 and 44.8825 and the U2OS cell growth (U2OS cells; 10 uM, time 0 h) was 34.3842 and 28.0059 and 32.3826. The U2OS cell growth (U2OS cells; 10 uM, time 2 h) was 40.1489 and 30.903 and 35.6928, the U2OS cell growth (U2OS cells; 10 uM, time 4 h) was 42.2655 and 32.6525 and 40.3474 and the U2OS cell growth (U2OS cells; 10 uM, time 6 h) was 45.1844 and 33.7835 and 42.5534. The U2OS cell growth (U2OS cells; 10 uM, time 8 h) was 38.9614 and 32.8145 and 39.1419.
`CCCCCCC(Sc1nc(Cl)cc(Nc2nc(-c3ccc(C(=O)O)cc3)cs2)n1)C(=O)O` (centres unmarked) [compound 21] showed a Kd (LC3A) of 2000 nM.
